Assay results reported in patent US9889078B2, “Skin and/or hair whitening mixture” (Symrise AG, priority 2013, dated 2018).

Tested on: human full-thickness skin explants
Experiment: ex-vivo study of lightening efficacy (melanin content) in human full-thickness skin explants
Format: cell-based
Conditions: for Melanin reduction: Reduction vs. Standard (%): treatments versus placebo at day 6, phototype tanned
Procedure: To evaluate the lightening efficacy of the test products an ex-vivo study using human full-thickness skin explants was performed. […] 1,2-Pentandiol was added to some of the blends to improve the penetration of the active ingredients into the skin layers.

| Structure (SMILES) | Melanin reduction: Reduction vs. Standard (%) | further results |
| --- | --- | --- |
| CC(C)=CCC[C@@](C)(O)[C@@H]1CC=C(C)CC1 [Bisabolol] | – | efficacy (melanin decrease) (0.08% Bisabolol alone, ex vivo model, tanned phototype): did not have any efficacy |
| CC(c1ccccc1)c1ccc(O)cc1O (centres unmarked) [Example C2, Phenylethyl Resorcinol] | −13 | – |
| CC(c1ccccc1)c1ccc(O)cc1O (centres unmarked) [Example C3, Phenylethyl Resorcinol] | −21 | – |
| CC(C)=CCC[C@](C)(O)C1CC=C(C)CC1 (some centres unmarked) [Example C4, Bisabolol] | 0 | – |
| CC(c1ccccc1)c1ccc(O)cc1O (centres unmarked) [Pheneylethyl Resorcinol, Phenylethyl Resorcinol] | – | melanin decrease (0.4% Phenylethyl Resorcinol alone, tanned phototype): 21% |
